Experiments:
Test in all cases: relative viability (nuclei count vs DMSO), 5 days (fraction); higher = more cells survive
Linifanib = compound: Cc1ccc(F)c(NC(=O)Nc2ccc(-c3cccc4[nH]nc(N)c34)cc2)c1 [Linifanib]
Outline: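 Lung cancer cell lines were seeded into 1536-well plates, kept overnight at 37 °C and pinned with five library-drug doses (not always all listed) spaced by √10. After 5 days, nuclei were Hoechst-stained, imaged at 4× and counted with MetaXpress. Viability is treated-well nuclei over vehicle-well nuclei, taken as a median across plates. Plates needed control CV below 25% and at least one doubling.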

Linifanib + Tozasertib = compound: Cc1ccc(F)c(NC(=O)Nc2ccc(-c3cccc4[nH]nc(N)c34)cc2)c1 [Linifanib] + Cc1cc(Nc2cc(N3CCN(C)CC3)nc(Sc3ccc(NC(=O)C4CC4)cc3)n2)n[nH]1 [Tozasertib] (partner 0.1 µM)
Outline: (§1)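 Relative viability divides the nuclei count in treated wells by that in vehicle wells. Lung cancer cell lines were seeded in 1536-well plates, dosed by pin tool the next day, and fixed and stained after 5 days in one step with final 0.05% Triton X-100, 1% formaldehyde and 1 ug/ml Hoechst. Dosing was a single drug or a fixed anchor-drug dose plus five library-drug doses (not always all listed) in √10 steps, and values are medians of duplicate plates imaged at 4×.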

Linifanib + Palbociclib = compound: Cc1ccc(F)c(NC(=O)Nc2ccc(-c3cccc4[nH]nc(N)c34)cc2)c1 [Linifanib] + CC(=O)c1c(C)c2cnc(Nc3ccc(N4CCNCC4)cn3)nc2n(C2CCCC2)c1=O [Palbociclib] (partner 0.5 µM)
Outline: as §1

Linifanib + Lapatinib = compound: Cc1ccc(F)c(NC(=O)Nc2ccc(-c3cccc4[nH]nc(N)c34)cc2)c1 [Linifanib] + CS(=O)(=O)CCNCc1ccc(-c2ccc3ncnc(Nc4ccc(OCc5cccc(F)c5)c(Cl)c4)c3c2)o1 [Lapatinib] (partner 2 µM)
Outline: as §1

Linifanib + Pictilisib = compound: Cc1ccc(F)c(NC(=O)Nc2ccc(-c3cccc4[nH]nc(N)c34)cc2)c1 [Linifanib] + CS(=O)(=O)N1CCN(Cc2cc3nc(-c4cccc5[nH]ncc45)nc(N4CCOCC4)c3s2)CC1 [Pictilisib] (partner 1 µM)
Outline: as §1

Linifanib + Dasatinib = compound: Cc1ccc(F)c(NC(=O)Nc2ccc(-c3cccc4[nH]nc(N)c34)cc2)c1 [Linifanib] + Cc1nc(Nc2ncc(C(=O)Nc3c(C)cccc3Cl)s2)cc(N2CCN(CCO)CC2)n1 [Dasatinib] (partner 0.075 µM)
Outline: as §1

Cell Line	relative viability (Linifanib; 0.03162 µM)	relative viability (Linifanib; 0.1 µM)	relative viability (Linifanib; 0.3162 µM)	relative viability (Linifanib + Tozasertib; first compound 0.03162 µM)	relative viability (Linifanib + Tozasertib; first compound 0.1 µM)	relative viability (Linifanib + Tozasertib; first compound 0.3162 µM)	relative viability (Linifanib + Palbociclib; first compound 0.03162 µM)	relative viability (Linifanib + Palbociclib; first compound 0.1 µM)	relative viability (Linifanib + Palbociclib; first compound 0.3162 µM)	relative viability (Linifanib + Lapatinib; first compound 0.03162 µM)	relative viability (Linifanib + Lapatinib; first compound 0.1 µM)	relative viability (Linifanib + Lapatinib; first compound 0.3162 µM)	relative viability (Linifanib + Pictilisib; first compound 0.03162 µM)	relative viability (Linifanib + Pictilisib; first compound 0.1 µM)	relative viability (Linifanib + Pictilisib; first compound 0.3162 µM)	relative viability (Linifanib + Dasatinib; first compound 0.03162 µM)	relative viability (Linifanib + Dasatinib; first compound 0.1 µM)	relative viability (Linifanib + Dasatinib; first compound 0.3162 µM)
201T	1	0.992	0.982	0.971	0.965	0.942	0.369	0.371	0.348	1.07	1.03	1.05	0.69	0.704	0.668	0.571	0.623	0.559
A-427	1.05	1.07	0.989	0.227	0.204	0.197	0.54	0.548	0.507	1.06	1.01	0.955	0.796	0.724	0.711	0.715	0.835	0.798
ABC-1	1.03	0.842	0.672	0.152	0.173	0.176	0.754	0.797	0.787	1.15	1.13	0.93	0.759	0.953	0.742	0.546	0.555	0.589
BEN	0.888	1.16	0.915	0.446	0.441	0.484	0.471	0.521	0.438	0.6	0.767	0.713	0.516	0.606	0.581	0.318	0.34	0.316
CAL-12T	1.15	0.99	0.9	0.333	0.348	0.355	0.485	0.446	0.419	0.75	0.819	0.534	0.439	0.478	0.33	0.457	0.508	0.343
COR-L23	1.1	1.11	1	0.181	0.228	0.141	0.31	0.298	0.273	1.09	0.905	0.921	0.754	0.717	0.686	0.532	0.647	0.418
COR-L 105	0.975	0.97	0.904	0.334	0.321	0.336	0.424	0.405	0.401	0.388	0.381	0.333	0.422	0.437	0.388	0.416	0.361	0.322
ChaGo-K-1	1.07	1.01	0.983	0.239	0.245	0.228	0.984	0.881	0.916				0.697	0.783	0.741	0.721	0.727	0.558
EKVX	0.982	1.01	0.91	0.477	0.448	0.338	0.447	0.383	0.415	0.209	0.24	0.222	0.508	0.512	0.454	0.662	0.662	0.547
EMC-BAC-2	1.07	1.03	0.965	0.296	0.266	0.302	0.542	0.562	0.531	0.901	0.992	0.844	0.555	0.59	0.523	0.341	0.347	0.406
EPLC-272H	0.883	1.23	0.884	0.346	0.209	0.181	0.333	0.338	0.294	0.956	0.913	0.814	0.355	0.324	0.28	0.324	0.418	0.51
H3255	1.04	1.01	1.02	0.767	0.662	0.601	0.358	0.302	0.312	0.246	0.508	0.242	0.509	0.507	0.488	0.457	0.364	0.364
HARA	0.926	1.04	0.907	0.094	0.117	0.0893	0.274	0.244	0.303	0.815	0.905	0.73	0.337	0.52	0.3	0.234	0.335	0.285
HCC-15	1.08	1.05	0.939	0.39	0.406	0.436	0.723	0.741	0.842	0.841	0.839	0.853	0.833	0.804	0.71	0.635	0.709	0.725
HCC-44	1.05	0.95	0.944	0.558	1.05	0.812	0.996	0.955	1.01	1.04	1	0.989	0.605	0.674	0.595			
HCC-78	0.99	1.17	0.885	0.493	0.519	0.371	0.513	0.433	0.447	1.23	0.976	0.674	0.24	0.21	0.237	0.441	0.539	0.37
HCC-366	1.06	1.05	0.949	0.0836	0.0997	0.105	0.398	0.427	0.373	1.02	1.12	0.895	0.148	0.21	0.214	0.554	0.648	0.582

From the supplement of paper PMC10307832
